Measured values from US20230338391A1, “TREATMENT FOR DEPRESSION” (TAKEDA PHARMACEUTICAL COMPANY LIMITED, priority 2020, published 2023).

System: healthy subjects
Assay: TMS crossover study: safety and tolerability
Conditions: 0.5 mg/kg IV infusion, 20 subjects

CNC1(c2ccccc2Cl)CCCCC1=O (stereo not shown) [ketamine, reference compound]
discontinuation because of AEs: One subject in the ketamine treatment was discontinued from study drug because of AEs
